Test [1] addresses T1, human CCR5 (Homo sapiens, UniProt P51681).
T1 construct: expressed in transfected cells; host or cells: CHO-K1 cells, electroporated with plasmid pCKR5 (pcDNA3.1 backbone), geneticin-selected (CHO/CCR5)
In words: Inhibition of [125I]-RANTES binding to human CCR5 in CHO/CCR5 cells (CCR5 antagonistic activity). The following applies: Test Compound 1 μM, 100 pM [125I]-RANTES, room temperature, 40 minutes, read-out: Inhibition Rate (CCR5 binding). The protocol:
Cloning of CCR5 gene was carried out by PCR (polymerase chain reaction) from human spleen cDNA. With using 0.5 ng of spleen cDNA (Toyobo, QUICK-Clone cDNA) as template, PCR was performed in DNA Thermal Cycler 480 (Perkin-Elmer) (reaction conditions: 30 cycles of 95° C. for 1 minute, 60° C. for 1 minute, and 75° C. for 5 minutes) by adding primer set, 5'-[…]-3' (25 pmol) and 5'-[…]-3' (25 pmol), which were designed referring to nucleotide sequence of CCR5 gene reported by Samson et al. (Biochemistry, 35(11), 3362-3367 (1996)) and by using TaKaRa EX Taq (TakaraShuzo). The resultant PCR product was subjected to agarose gel. electrophoresis to collect about 1.0 kb DNA fragment, which was subjected to Original TA Cloning Kit (Funakoshi) to carry out cloning of CCR5 gene.
The plasmid obtained in the above (1) was digested with restriction enzymes XbaI (Takara Shuzo) and BamHI (Takara Shuzo) and subjected to agarose gel electrophoresis to collect about 1.0 kb DNA fragment. The DNA fragment was mixed with plasmid pcDNA3.1 (Funakoshi) for expression in animal cells, said plasmid being digested with XbaI and BamHI, and they were ligated with DNA Ligation Kit Ver.2 (Takara Shuzo). The resulting plasmid was subjected to transformation of competent cell of E. coli JM109 (Takara Shuzo) to obtain plasmid pCKR5.
CHO-K1 cells were grown in 750 ml of tissue culture flask (Becton Dickinson) using Ham's F12 medium (Nihon Pharmaceutical) containing 10% fetal calf serum (Life Tech Oriental) and took off with 0.5 g/L trypsin-0.2 g/L EDTA (Life Tech Oriental). The cells were washed with PBS (Life Tech Oriental), centrifuged (1000 rpm, 5 minutes), and suspended in PBS. With using Gene Pulser (Bio-Rad Laboratories), DNA was introduced into the cells under the conditions shown below. That is, to the cuvette of 0.4 cm gap were added 8×10^6 cells and 10 μg of plasmid pCKR5 for expression of human CCR5, and electroporation was carried out under 0.25 kV of voltage and 960 μF of capacitance. The cells were transferred into Ham's F12 medium (Nihon Pharmaceutical) containing 10% fetal calf serum, and cultivated for 24 hours. The cells were again took off and centrifuged, and suspended in Ham's F12 medium (Nihon Pharmaceutical) containing 10% fetal calf serum and 500 μg/ml of geneticin (Life Tech Oriental). The suspension was diluted to give 10^4 cells/ml of the suspension, which was inoculated on 96 well plate (Becton Dickinson) to give geneticin resistant cells. The resulting geneticin resistant cells were cultivated in 96 well plate (Becton Dickinson), and cells expressing CCR5 were selected from the geneticin resistant cells. That is, in assay buffer (Ham's F12 medium containing 0.5% BSA and 20 mM HEPES (Wako Pure Chemical, pH7.2) to which was added 200 pM of [^125 I]-RANTES (Amersham) as ligand, binding reaction was carried out at room temperature for 40 minutes, and the buffer was washed with cooled PBS. To the buffer was added 50 μl/well of 1M NaOH, and the mixture was stirred. Radioactivity was determined with γ-counter to select CHO/CCR5 cells which specifically bind to the ligand.
The CHO/CCR5 were inoculated on 96 well microplate (5×10^4 cells/well) and cultivated for 24 hours. The medium was removed by means of suction, and to each well was added assay buffer containing Test Compound (1 μM) and then 100 pM of [^125 I]-RANTES (Amersham) as ligand. Binding assay was carried out at room temperature for 40 minutes, and assay buffer was removed by means of suction. Each well was washed twice with cooled PBS, and 200 μl of Microscint-20 (Packard Instrument, Inc.) was added to each well. Radio-activity was determined with Top-Count Micro Scintillation Counter (Packard Instrument, Inc.).
According to the method described above, inhibition rate of Test Compound (whose number is referred to in the following Examples) to CCR5 binding.

For test [2], the system named is HIV-1 BA-L. The test is described as follows: Inhibitory effect on HIV-1 infection to MAGI-CCR5 cell (β-galactosidase activity). Type of test: cell-based. The following applies: 100 μl of medium containing 1.6 μM Test Compound plus 100 μl of medium containing 300PFU HIV-1 BA-L; MAGI-CCR5 cells; 37° C., 2 days. On the procedure: The plasmid where β-galactosidase gene was ligated downstream of HIV-1 LTR was introduced into CD4 positive HeLa cell, to which human CCR5 was further introduced to obtain transformant MAGI-CCR5. By using said transformant MAGI-CCR5, degree of HIV-1 infection was calculated from β-galactosidase activity (blue color due to decomposition of 5-bromo-4-chloro-3-indolyl-β-D-galactopyranoside). Specifically, MAGI-CCR5 cells were suspended in DMEM medium containing 10% serum to prepare 5×10^4 cells/ml suspension. To each well of 96 well plate was inoculated 200 μl of the suspension, and the cells were cultivated at 37° C. overnight. The medium was removed by means of suction, and to the residue was added 100 μl of the above medium containing 1.6 μM of Test Compound and 100 μl of the above medium containing 300PFU of HIV-1 BA-L cells. The cells were cultivated at 37° C. for 2 days. The medium was removed by means of suction. To the residue was added 200 μl of cell fixative (PBS containing 1% formaldehyde and 0.2% glutaraldehyde), and the mixture was allowed to stand at room temperature for 5 minutes and washed twice with PBS. To the mixture was added 100 μl of staining solution (PBS containing […] and 0.4 mg/ml X-gal), and the mixture was allowed to stand at 37° C. for 50 minutes and washed twice with PBS. The number of blue cells was counted by microscope and defined as the number of cells infected with HIV-1. According to this method, inhibition rate on HIV-1 infection was determined.

The term inhibition denotes the drop in the measured response relative to a control, in per cent.

T1 sequence (P51681 whole entry): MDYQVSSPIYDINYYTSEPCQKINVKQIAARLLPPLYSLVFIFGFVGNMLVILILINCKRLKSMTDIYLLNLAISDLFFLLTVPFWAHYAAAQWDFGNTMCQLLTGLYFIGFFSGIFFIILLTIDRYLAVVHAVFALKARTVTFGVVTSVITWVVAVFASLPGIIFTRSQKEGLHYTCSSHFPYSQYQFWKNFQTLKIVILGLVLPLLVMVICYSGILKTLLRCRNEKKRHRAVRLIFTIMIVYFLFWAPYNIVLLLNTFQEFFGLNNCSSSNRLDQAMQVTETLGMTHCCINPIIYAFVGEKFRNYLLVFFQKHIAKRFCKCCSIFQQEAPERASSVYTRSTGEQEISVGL

Regarding `CCCOCCOc1ccc(-c2ccc3c(c2)C=C(C(=O)Nc2ccc(CN(C)C4CCOCC4)cc2)CCS3(=O)=O)cc1` [Compound 97, N-[4-[[N-methyl-N-(tetrahydropyran-4-yl)amino]methyl]phenyl]-7-[4-(2-propoxyethoxy)phenyl]-1,1-dioxo-2,3-dihydro-1-benzothiepine-4-carboxamide], in test [1], the inhibition at 1 µM was 92%. The “Inhibition Rate (HIV-1 infection)” value in test [2] is on record as 87%.

With `CCCCOCCOc1ccc(-c2ccc3c(c2)C=C(C(=O)Nc2ccc(CN(C)C4CCOCC4)cc2)CCS3(=O)=O)cc1` [Compound 98, 7-[4-(2-butoxyethoxy)phenyl]-N-[4-[[N-methyl-N-(tetrahydropyran-4-yl)amino]methyl]phenyl]-1,1-dioxo-2,3-dihydro-1-benzothiepine-4-carboxamide], the inhibition at 1 µM in test [1] is 98%. The “Inhibition Rate (HIV-1 infection)” value in test [2] is listed as 91%.

Source of the values: US6235771A, “Anilide derivative, production and use thereof” (Takeda Chemical Industries, Ltd., priority 1998, dated 2001).
